Numbered stars: 1 amine (or outer) side, 2 acyl side, 3 side chain; on linkers, the order of the positions; unused ones are H or OH. Bridge positions count the residues as written; N and C are the ends. Square brackets hold non-standard residues; d marks the D form. Side chains are listed from the residue outwards. Peptide text beside a SMILES is read from it. I, II: the chains in the order shown. * marks the point of attachment. C18 diacid = O=C(O)CCCCCCCCCCCCCCCCC(=O)*; γGlu = O=C(O)[C@H](CCC(=O)[*:2])N[*:1]; Ac4c = NC1(C(=O)O)CCC1; AEEA = NCCOCCOCC(=O)O; Aib = CC(C)(N)C(=O)O
Test: Thioflavin T (ThT) fibrillation assay for physical stability
Type: physicochemical
Settings: 250 μM in 10 mM HEPES buffer, pH 7.5, 37° C., shaking 960 rpm
Outline: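 Peptide at 250 μM in 10 mM HEPES pH 7.5 with 1 μM ThT, at 37° C with 960 rpm orbital shaking. Fluorescence (ex 444/em 485 nm) read every 20 min after 10 min pre-incubation; sigmoidal fit gives lag time (t0−2τ) and kapp (1/τ). Recovery is RP-HPLC peptide in the centrifuged, 0.22 μm-filtered supernatant as % of initial.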

THT assay Lag time (Ex. 76) | Compound
45 h | CC(C)C[C@H](NC(=O)[C@H](CC(C)C)NC(=O)[C@H](Cc1c[nH]c2ccccc12)NC(=O)[C@H](CCC(N)=O)NC(=O)[C@@H](NC(=O)[C@H](Cc1ccccc1)NC(=O)[C@H](CCC(=O)O)NC(=O)[C@H](CCC(N)=O)NC(=O)[C@H](C)NC(=O)[C@H](C)NC(=O)[C@H](CCCCN)NC(=O)[C@H](CO)NC(=O)[C@H](CC(=O)O)NC(=O)[C@H](CC(C)C)NC(=O)[C@H](Cc1ccc(O)cc1)NC(=O)[C@H](CCCCN)NC(=O)[C@H](CO)NC(=O)[C@H](CC(C)C)NC(=O)[C@H](CC(=O)O)NC(=O)[C@H](CO)NC(=O)[C@@H](NC(=O)[C@H](Cc1ccccc1)NC(=O)[C@@H](NC(=O)CNC(=O)[C@H](CCC(N)=O)NC(=O)C(C)(C)NC(=O)[C@@H](N)Cc1c[nH]cn1)[C@@H](C)O)[C@@H](C)O)C(C)C)C(=O)N[C@@H](CC(N)=O)C(=O)N[C@@H](CCCCNC(=O)CC[C@H](NC(=O)CC[C@H](NC(=O)COCCOCCNC(=O)COCCOCCNC(=O)CC[C@H](NC(=O)CCCCCCCCCCCCCCCCC(=O)O)C(=O)O)C(=O)O)C(=O)O)C(N)=O [Example 8, N^ε29-[(4S)-4-carboxy-4-[[(4S)-4-carboxy-4-[[2-[2-[2-[[2-[2-[2-[[(4S)-4-carboxy-4-(17-carboxyheptadecanoylamino)butanoyl]amino]ethoxy]ethoxy]acetyl]amino]ethoxy]ethoxy]acetyl]amino]butanoyl]amino]butanoyl]-[Aib2,Leu10,Lys17,Ala18,Glu21,Leu27,Lys29]-Glucagon amide] (H-H[Aib]QGTFTSDLSKYLDSKAAQEFVQWLLNK([γGlu-γGlu-AEEA-AEEA-γGlu-C18 diacid])-NH2; N-terminus assumed)
7 h | CC(C)C[C@H](NC(=O)[C@H](Cc1ccc(O)cc1)NC(=O)[C@H](CCCCN)NC(=O)[C@H](CO)NC(=O)[C@H](CC(C)C)NC(=O)[C@H](CC(=O)O)NC(=O)[C@H](CO)NC(=O)[C@@H](NC(=O)[C@H](Cc1ccccc1)NC(=O)[C@@H](NC(=O)CNC(=O)[C@H](CCC(N)=O)NC(=O)C(C)(C)NC(=O)[C@@H](N)Cc1c[nH]cn1)[C@@H](C)O)[C@@H](C)O)C(=O)N[C@@H](CC(=O)O)C(=O)N[C@@H](CCCCNC(=O)CC[C@H](NC(=O)CC[C@H](NC(=O)COCCOCCNC(=O)COCCOCCNC(=O)CC[C@H](NC(=O)CCCCCCCCCCCCCCCCC(=O)O)C(=O)O)C(=O)O)C(=O)O)C(=O)N[C@@H](CCCNC(=N)N)C(=O)N[C@@H](CCCNC(=N)N)C(=O)N[C@@H](C)C(=O)N[C@@H](CCCNC(=N)N)C(=O)N[C@@H](CCC(=O)O)C(=O)N[C@@H](Cc1ccccc1)C(=O)N[C@H](C(=O)N[C@@H](CCC(N)=O)C(=O)N[C@@H](Cc1c[nH]c2ccccc12)C(=O)N[C@@H](CC(C)C)C(=O)N[C@@H](CC(C)C)C(=O)N[C@@H](CC(N)=O)C(=O)N[C@H](C(N)=O)[C@@H](C)O)C(C)C [Example 10, N^ε16-[(4S)-4-carboxy-4-[[(4S)-4-carboxy-4-[[2-[2-[2-[[2-[2-[2-[[(4S)-4-carboxy-4-(17-carboxyheptadecanoylamino)butanoyl]amino]ethoxy]ethoxy]acetyl]amino]ethoxy]ethoxy]acetyl]amino]butanoyl]amino]butanoyl]-[Aib2,Leu10,Lys16,Arg20,Glu21,Leu27]-Glucagon amide] (H-H[Aib]QGTFTSDLSKYLDK([γGlu-γGlu-AEEA-AEEA-γGlu-C18 diacid])RRAREFVQWLLNT-NH2; N-terminus assumed)
45 h | CC(C)C[C@H](NC(=O)[C@H](CC(C)C)NC(=O)[C@H](Cc1c[nH]c2ccccc12)NC(=O)[C@H](CCC(N)=O)NC(=O)[C@@H](NC(=O)[C@H](Cc1ccccc1)NC(=O)[C@H](CCC(=O)O)NC(=O)[C@H](CCCNC(=N)N)NC(=O)[C@H](C)NC(=O)[C@H](CCCNC(=N)N)NC(=O)[C@H](CCCNC(=N)N)NC(=O)[C@H](CO)NC(=O)[C@H](CC(=O)O)NC(=O)[C@H](CC(C)C)NC(=O)[C@H](Cc1ccc(O)cc1)NC(=O)[C@H](CCCCN)NC(=O)[C@H](CO)NC(=O)[C@H](CC(C)C)NC(=O)[C@H](CC(=O)O)NC(=O)[C@H](CO)NC(=O)[C@@H](NC(=O)[C@H](Cc1ccccc1)NC(=O)[C@@H](NC(=O)CNC(=O)[C@H](CCC(N)=O)NC(=O)C(C)(C)NC(=O)[C@@H](N)Cc1c[nH]cn1)[C@@H](C)O)[C@@H](C)O)C(C)C)C(=O)N[C@@H](CC(N)=O)C(=O)N[C@@H](CCCCNC(=O)CC[C@H](NC(=O)CC[C@H](NC(=O)COCCOCCNC(=O)COCCOCCNC(=O)CC[C@H](NC(=O)CCCCCCCCCCCCCCCCC(=O)O)C(=O)O)C(=O)O)C(=O)O)C(N)=O [Example 12, N^ε29-[(4S)-4-carboxy-4-[[(4S)-4-carboxy-4-[[2-[2-[2-[[2-[2-[2-[[(4S)-4-carboxy-4-(17-carboxyheptadecanoylamino)butanoyl]amino]ethoxy]ethoxy]acetyl]amino]ethoxy]ethoxy]acetyl]amino]butanoyl]amino]butanoyl]-[Aib2,Leu10,Arg20,Glu21,Leu27,Lys29]-Glucagon amide] (H-H[Aib]QGTFTSDLSKYLDSRRAREFVQWLLNK([γGlu-γGlu-AEEA-AEEA-γGlu-C18 diacid])-NH2)
45 h | CC(C)C[C@H](NC(=O)[C@H](Cc1ccc(O)cc1)NC(=O)[C@H](CCCCN)NC(=O)[C@H](CO)NC(=O)[C@H](CC(C)C)NC(=O)[C@H](CC(=O)O)NC(=O)[C@H](CO)NC(=O)[C@@H](NC(=O)[C@H](Cc1ccccc1)NC(=O)[C@@H](NC(=O)CNC(=O)[C@H](CCC(N)=O)NC(=O)C1(NC(=O)[C@@H](N)Cc2c[nH]cn2)CCC1)[C@@H](C)O)[C@@H](C)O)C(=O)N[C@@H](CCC(=O)O)C(=O)N[C@@H](CCC(=O)O)C(=O)N[C@@H](CCCNC(=N)N)C(=O)N[C@@H](CCCNC(=N)N)C(=O)N[C@@H](C)C(=O)N[C@@H](CCCNC(=N)N)C(=O)N[C@@H](CC(=O)O)C(=O)N[C@@H](Cc1ccccc1)C(=O)N[C@H](C(=O)N[C@@H](CCC(N)=O)C(=O)N[C@@H](Cc1c[nH]c2ccccc12)C(=O)N[C@@H](CC(C)C)C(=O)N[C@@H](CC(C)C)C(=O)N[C@@H](CCCCNC(=O)CNC(=O)[C@H](CO)NC(=O)[C@H](CCC(=O)O)NC(=O)CNC(=O)[C@H](CO)NC(=O)CC[C@H](NC(=O)CC[C@H](NC(=O)CCCCCCCCCCCCCCCCC(=O)O)C(=O)O)C(=O)O)C(=O)N[C@H](C(N)=O)[C@@H](C)O)C(C)C [Example 16, N^ε28-[2-[[(2S)-2-[[(2S)-4-carboxy-2-[[2-[[(2S)-2-[[(4S)-4-carboxy-4-[[(4S)-4-carboxy-4-(17-carboxyheptadecanoylamino)butanoyl]amino]butanoyl]amino]-3-hydroxypropanoyl]amino]acetyl]amino]butanoyl]amino]-3-hydroxypropanoyl]amino]acetyl]-[Acb2,Leu10,Glu15,Glu16,Arg20,Leu27,Lys28]-Glucagon amide] (I: H-H[Ac4c]QGTFTSDLSKYLEERRARDFVQWLLKT-NH2 / II: {C18 diacid-γGlu-γGlu}-SGESG; amide I:28-II:C; N-terminus assumed)

— US9474790B2, “Stable, protracted GLP-1/glucagon receptor co-agonists for medical use” (Novo Nordisk A/S, priority 2013, dated 2016)
